# Source: PubChem BioAssay (NCI)
#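 Values below derive from 48-hour exposures of cells grown in 96-well plates, with endpoints linearly interpolated between the two concentrations bracketing the appropriate inhibition level. GI50: concentration for 50% inhibition of growth. Definition used: TGI = concentration required for complete inhibition of growth.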
# Columns and labels:
# Experiment in all cases: inhibition of tumour cell growth, NCI panel, 48 h
# SK-MEL-2 melanoma = test system: SK-MEL-2 melanoma
# M14 melanoma = test system: M14 melanoma
# A498 renal = test system: A498 renal
# UO-31 renal = test system: UO-31 renal
# MDA-MB-435 = test system: MDA-MB-435
# A549 NSCLC = test system: A549 NSCLC
# 786-0 renal = test system: 786-0 renal
# SW-620 colon = test system: SW-620 colon
# HOP-62 NSCLC = test system: HOP-62 NSCLC
# HS 578T breast = test system: HS 578T breast
# CAKI-1 renal = test system: CAKI-1 renal
# RPMI-8226 leukemia = test system: RPMI-8226 leukemia
# TK-10 renal = test system: TK-10 renal
# ACHN renal = test system: ACHN renal
# SNB-75 CNS = test system: SNB-75 CNS
# SF-268 CNS = test system: SF-268 CNS
# NCI-H522 lung = test system: NCI-H522 lung
# SK-OV-3 ovarian = test system: SK-OV-3 ovarian
# NCI/ADR-RES ovarian = test system: NCI/ADR-RES ovarian
# HOP-92 NSCLC = test system: HOP-92 NSCLC
# OVCAR-5 ovarian = test system: OVCAR-5 ovarian
# U251 CNS = test system: U251 CNS
# HCC-2998 colon = test system: HCC-2998 colon
# EKVX NSCLC = test system: EKVX NSCLC
# SK-MEL-5 melanoma = test system: SK-MEL-5 melanoma
# RXF 393 renal = test system: RXF 393 renal
# PC-3 prostate = test system: PC-3 prostate
# UACC-62 melanoma = test system: UACC-62 melanoma
# DU-145 prostate = test system: DU-145 prostate
# HCT-116 colon = test system: HCT-116 colon
# SK-MEL-28 melanoma = test system: SK-MEL-28 melanoma
# SNB-19 CNS = test system: SNB-19 CNS
# IGROV1 ovarian = test system: IGROV1 ovarian
# NCI-H23 lung = test system: NCI-H23 lung
# NCI-H226 lung = test system: NCI-H226 lung
# LOX IMVI melanoma = test system: LOX IMVI melanoma
# NCI-H460 lung = test system: NCI-H460 lung
# HL-60(TB) leukemia = test system: HL-60(TB) leukemia
# HCT-15 colon = test system: HCT-15 colon
# OVCAR-8 ovarian = test system: OVCAR-8 ovarian
# CCRF-CEM leukemia = test system: CCRF-CEM leukemia
# MOLT-4 leukemia = test system: MOLT-4 leukemia
# MCF7 breast = test system: MCF7 breast
# KM12 colon = test system: KM12 colon
# OVCAR-4 ovarian = test system: OVCAR-4 ovarian
# MALME-3M melanoma = test system: MALME-3M melanoma
# COLO 205 colon = test system: COLO 205 colon
# K-562 leukemia = test system: K-562 leukemia
# MDA-MB-231 breast = test system: MDA-MB-231 breast
# BT-549 breast = test system: BT-549 breast
# T-47D breast = test system: T-47D breast
# HT29 colon = test system: HT29 colon
# SF-295 CNS = test system: SF-295 CNS
# SR leukemia = test system: SR leukemia
# SN12C renal = test system: SN12C renal
# SF-539 CNS = test system: SF-539 CNS
# UACC-257 melanoma = test system: UACC-257 melanoma
compound,measurement,setting,value
CCOc1ccc(NC2=C(Cl)C(=O)c3nc(C)ccc3C2=O)cc1,GI50,SK-MEL-2 melanoma,1630 nM
same,TGI,SK-MEL-2 melanoma,3030 nM
same,GI50,M14 melanoma,1680 nM
same,TGI,M14 melanoma,3230 nM
same,GI50,A498 renal,1560 nM
same,TGI,A498 renal,5520 nM
same,GI50,UO-31 renal,1430 nM
same,TGI,UO-31 renal,2750 nM
same,GI50,MDA-MB-435,442 nM
same,TGI,MDA-MB-435,1530 nM
same,GI50,A549 NSCLC,2090 nM
same,TGI,A549 NSCLC,4640 nM
same,GI50,786-0 renal,1720 nM
same,TGI,786-0 renal,3190 nM
same,GI50,SW-620 colon,1830 nM
same,TGI,SW-620 colon,3510 nM
same,GI50,HOP-62 NSCLC,1740 nM
same,TGI,HOP-62 NSCLC,3230 nM
same,GI50,HS 578T breast,2220 nM
same,TGI,HS 578T breast,5820 nM
same,GI50,CAKI-1 renal,1600 nM
same,TGI,CAKI-1 renal,2970 nM
same,GI50,RPMI-8226 leukemia,1670 nM
same,TGI,RPMI-8226 leukemia,5330 nM
same,GI50,TK-10 renal,2300 nM
same,TGI,TK-10 renal,3770 nM
same,GI50,ACHN renal,1570 nM
same,TGI,ACHN renal,2920 nM
same,GI50,SNB-75 CNS,1460 nM
same,TGI,SNB-75 CNS,2790 nM
same,GI50,SF-268 CNS,1550 nM
same,TGI,SF-268 CNS,3090 nM
same,GI50,NCI-H522 lung,1750 nM
same,TGI,NCI-H522 lung,3220 nM
same,GI50,SK-OV-3 ovarian,11000 nM
same,TGI,SK-OV-3 ovarian,30100 nM
same,GI50,NCI/ADR-RES ovarian,1700 nM
same,TGI,NCI/ADR-RES ovarian,4110 nM
same,GI50,HOP-92 NSCLC,2020 nM
same,TGI,HOP-92 NSCLC,3510 nM
same,GI50,OVCAR-5 ovarian,1920 nM
same,TGI,OVCAR-5 ovarian,3460 nM
same,GI50,U251 CNS,1800 nM
same,TGI,U251 CNS,3540 nM
same,GI50,HCC-2998 colon,1760 nM
same,TGI,HCC-2998 colon,3250 nM
same,GI50,EKVX NSCLC,1610 nM
same,TGI,EKVX NSCLC,3120 nM
same,GI50,SK-MEL-5 melanoma,1720 nM
same,TGI,SK-MEL-5 melanoma,3110 nM
same,GI50,RXF 393 renal,1570 nM
same,TGI,RXF 393 renal,2960 nM
same,GI50,PC-3 prostate,1300 nM
same,TGI,PC-3 prostate,2770 nM
same,GI50,UACC-62 melanoma,1810 nM
same,TGI,UACC-62 melanoma,3290 nM
same,GI50,DU-145 prostate,1720 nM
same,TGI,DU-145 prostate,3130 nM
same,GI50,HCT-116 colon,1320 nM
same,TGI,HCT-116 colon,2790 nM
same,GI50,SK-MEL-28 melanoma,1730 nM
same,TGI,SK-MEL-28 melanoma,3140 nM
same,GI50,SNB-19 CNS,1680 nM
same,TGI,SNB-19 CNS,3160 nM
same,GI50,IGROV1 ovarian,1360 nM
same,TGI,IGROV1 ovarian,2760 nM
same,GI50,NCI-H23 lung,1350 nM
same,TGI,NCI-H23 lung,2850 nM
same,GI50,NCI-H226 lung,1840 nM
same,TGI,NCI-H226 lung,4520 nM
same,GI50,LOX IMVI melanoma,1060 nM
same,TGI,LOX IMVI melanoma,2330 nM
same,GI50,NCI-H460 lung,3080 nM
same,TGI,NCI-H460 lung,10400 nM
same,GI50,HL-60(TB) leukemia,1470 nM
same,TGI,HL-60(TB) leukemia,4180 nM
same,GI50,HCT-15 colon,1300 nM
same,TGI,HCT-15 colon,2950 nM
same,GI50,OVCAR-8 ovarian,1570 nM
same,TGI,OVCAR-8 ovarian,3010 nM
same,GI50,CCRF-CEM leukemia,2110 nM
same,TGI,CCRF-CEM leukemia,> 100000 nM
same,GI50,MOLT-4 leukemia,2490 nM
same,TGI,MOLT-4 leukemia,> 100000 nM
same,GI50,MCF7 breast,1540 nM
same,TGI,MCF7 breast,3820 nM
same,GI50,KM12 colon,1440 nM
same,TGI,KM12 colon,3070 nM
same,GI50,OVCAR-4 ovarian,1130 nM
same,TGI,OVCAR-4 ovarian,2370 nM
same,GI50,MALME-3M melanoma,1650 nM
same,TGI,MALME-3M melanoma,3160 nM
same,GI50,COLO 205 colon,1860 nM
same,TGI,COLO 205 colon,3640 nM
same,GI50,K-562 leukemia,1170 nM
same,TGI,K-562 leukemia,> 100000 nM
same,GI50,MDA-MB-231 breast,1170 nM
same,TGI,MDA-MB-231 breast,2500 nM
same,GI50,BT-549 breast,1430 nM
same,TGI,BT-549 breast,2800 nM
same,GI50,T-47D breast,1010 nM
same,TGI,T-47D breast,3910 nM
same,GI50,HT29 colon,2870 nM
same,TGI,HT29 colon,7080 nM
same,GI50,SF-295 CNS,1860 nM
same,TGI,SF-295 CNS,3430 nM
same,GI50,SR leukemia,1090 nM
same,TGI,SR leukemia,> 100000 nM
same,GI50,SN12C renal,1580 nM
same,TGI,SN12C renal,2990 nM
same,GI50,SF-539 CNS,1680 nM
same,TGI,SF-539 CNS,3130 nM
same,GI50,UACC-257 melanoma,1390 nM
same,TGI,UACC-257 melanoma,2780 nM
